Patent US11759436B2, “Dosage regimen of an S1P receptor modulator” (Novartis AG, priority 2009, dated 2023)

Columns and labels:
[1] = test system: patients with Relapsing-remitting Multiple Sclerosis; assay: Study of oral fingolimod 0.5 mg/day or 1.25 mg/day vs interferon beta1-a in patients with RRMS; format: in vivo, human
Protocol: The patients are seen clinically every month for 3 months and every 3 months thereafter. The Expanded Disability Status Scale (EDSS) is performed every 3 months, the MS Functional Composite (MSFC) every 6 months, and MRI annually. Monitoring by ophthalmic examination, dermatologic examination, pulmonary function tests, chest X-ray and/or CT, Holter monitoring, and echocardiography are performed. Participants who completed 1 year on treatment are offered an optional extension phase.

[2] = test system: Patients with moderate asthma; assay: Study of FTY720 vs placebo in patients with moderate asthma (pulmonary function tests, safety); format: in vivo, human; conditions: daily dosage of 0.5 mg, 10 day treatment
Protocol: Patients with moderate asthma are divided into 3 dosing cohorts of 12 patients each. In each cohort, the 12 patients are randomized to FTY720 (0.5 mg, 1.25 mg, and 2.5 mg in cohorts 1, 2, and 3 respectively) or placebo in a 3:1 ratio resulting in 9 patients treated with FTY720 at each dose level and 9 patients treated with placebo. The study consists of a screening period of between 12 and 26 days, baseline and a 10 day treatment period followed by a study completion evaluation (performed 1-7 days after the last dose). Two screening visits are performed, the initial Screening visit and a second visit at Day −7 (+/−1 day). […] Short-acting […] agonist use prior to treatment with study medication is also recorded in this 14 day period. […] PFT profiling is assessed at 7 time points during the visit and routine baseline evaluations are performed. On Day 1, patients are randomized in a 3:1 ratio to FTY720 or placebo and PFT profiling is assessed at 8 time points (namely pre-dose, then at 1, 2, 3, 4, 5, 6 and 12 hours post-dose). PFT assessments are also performed on Days 2, 3, 7 (all single time points assessed at approximately the same clock time as the 6 hours post-dose PFT on Day 1) and Day 10 (7 time points, namely pre-dose and then at 1, 2, 3, 4, 5 and 6 hours post-dose). […] The magnitude of the bronchoconstriction is primarily assessed by the baseline-adjusted FEV1 AUC0-6 h on Day 1. […]

[3] = test system: Cardiac Rate and Rhythm in Healthy Patients; conditions: administration of 1.25 mg of FTY720; healthy subjects; cited from earlier work
[4] = both fingolimod groups (0.5 and 1.25 mg/day), month 12

CCCCCCCCc1ccc(CCC(N)(CO)CO)cc1.Cl [Fingolimod, 2-amino-2-[2-(4-octylphenyl)ethyl]propane-1,3-diol]
proportion of relapse-free patients ([1]; RRMS patients, fingolimod, dose not stated): 83% | reduction in relapses vs interferon beta1-a ([1]; RRMS patients, higher dose (1.25 mg/day)): 38% | reduction in relapses vs interferon beta1-a ([1]; RRMS patients, lower dose (0.5 mg/day)): 52% | Annualized relapse rate ([1]; RRMS patients, oral fingolimod 0.5 mg/day): 0.16 | Annualized relapse rate ([1]; RRMS patients, oral fingolimod 1.25 mg/day): 0.20 | MRI lesion activity: number of gadolinium-enhancing T1 lesions [1, 4]: reduction | MRI lesion activity: number of new or newly enlarging T2 lesions [1, 4]: reduction | Basal-cell carcinoma ([1]; fingolimod 0.5 mg/d): 3 (0.7) n (%) | Breast cancer ([1]; fingolimod 0.5 mg/d): 2 (0.5) n (%) | Malignant melanoma ([1]; fingolimod 0.5 mg/d): 3 (0.7) n (%) | Squamous-cell carcinoma ([1]; fingolimod 0.5 mg/d): 0 n (%) | Basal-cell carcinoma ([1]; fingolimod 1.25 mg/day): 2 (0.5) n (%) | Breast cancer ([1]; fingolimod 1.25 mg/day): 2 (0.5) n (%) | Malignant melanoma ([1]; fingolimod 1.25 mg/day): 0 n (%) | Squamous-cell carcinoma ([1]; fingolimod 1.25 mg/day): 0 n (%) | safety and tolerability [2]: safe and well tolerated | decrease in heart rate [3]: approximately 8 beets/min
